Here are results for five molecules from paper PMC6030093, “Discovery of peptide probes to modulate oxytocin-type receptors of insects” (Scientific Reports, 2018).

Series [1] deals with T. castaneum inotocin receptor. Conditions: initial characterisation of the T. castaneum receptor; cited from earlier work. The text has this: In parallel to characterising the inotocin receptor activity of kalata B7, we sought to identify an antagonist peptide. Our recent study with the L. niger inotocin peptide-receptor system[11] further emphasised the structural homology shared between inotocin receptors and human oxytocin/vasopressin receptors (Fig. 2, Table 1). […] Given this homology, we were interested in the ability of the oxytocin/V1a receptor anta ...

The next series has as its system human oxytocin receptor. As to conditions: cited from earlier work. The text has this: (§1) Compared to the level of identity between the T. castaneum inotocin receptor and its human counterparts (approximately 37–40% similarity ...
Series [2] relates to human vasopressin V1a receptor. As to conditions: cited from earlier work.
Text: as §1

Series [3] concerns L. niger inotocin receptor. The series can be described thus: IP1 accumulation, agonist mode (L. niger inotocin receptor). The series is classed as cell-based, Lasius niger. As to conditions: for Emax / LogEC50: HEK293 cells expressing L. niger receptor (C-terminal EGFP fusion), IP-One HTRF assay, mean ± S.E.M. from at least three independent experiments in triplicate; for Emax: 1 h at 37 °C; for LogEC50: pH 7.4, 1 h at 37 °C. The text has this:
(§2) The T. castaneum receptor gene was kindly provided by Yoonseong Park (Kansas State University)[8], whereas the L. niger inotocin receptor gene had been cloned and sequenced as per Di Giglio et al.[11]. Both receptor constructs were subsequently cloned into the pEGFP-N1 expression plasmid, generating C-terminal EGFP fusion receptor proteins. Receptors were expressed in HEK293 cells (ATCC, CRL 1573) via transfection using the Lipofectamine 2000® transfection reagent. The use of mammalian cell lines to study the receptors of insects and other invertebrate species, in the same vain as orphan receptors from mammalian genomes, is considered a standard procedure. Various studies have utilized this approach[8],[9],[11]. Whilst such mammalian cell lines may not completely mimic insect cell biology, GPCRs and their signalling is highly homologous across the animal kingdom; it would be unlikely that the insect receptors would mis-fold in a mammalian cell line. Nevertheless, during assay optimization we routinely monitored surface expression of GFP-tagged receptors, and we only proceeded to pharmacological assays, if the receptor localized at the cell membrane. Moreover, most biochemical cell-based functional assays are optimized for mammalian cells. Whilst it is possible that insect cells could be utilized for these assays, it is unknown whether they endogenously express inotocin receptors. […] Accordingly, mammalian cells were cultured in DMEM supplemented with 10% FBS and penicillin/streptomycin (100 U mL^−1) and plated in 6-well plates prior to transfection. When cells had reached confluency, cells were transfected as per the manufacturer’s protocol with 2.5 µg per well of each respective receptor construct using a DNA:Lipofectamine 2000® ratio of 1:3 prepared in serum-free DMEM. After 4–6 h, cells were dissociated by trituration and replated into white opaque 384-well plates (CellStar®, Greiner, Kremsmünster, Austria) at approximately 10,000 cells per well. Cells were cultured for approximately 38–48 h in a humidified incubator at 37 °C and an atmosphere of 5% CO2, and then assayed for second messenger production. Verification of receptor expression was assessed via microscopic examination of membrane localised GFP fluorescence.
(§3) Quantitative measurements of receptor-mediated inositol 1-phosphate (IP1) were performed by competitive immunoassay utilising the IP-One assay kit (CisBio, France). HEK293 cells were prepared as described above and then assayed as per the manufacturer’s protocol. Briefly, at the time of assay, the culture media was removed from cells, and then replaced with IP-One stimulation buffer (HEPES 10 mM, CaCl2 1 mM, MgCl2 0.5 mM, KCl 4.2 mM, NaCl 146 mM, glucose 5.5 mM, LiCl 50 mM, pH 7.4). Cells were allowed to equilibrate in the stimulation buffer at 37 °C for 15 min, followed by addition of peptide ligands (to final concentrations of 0.1 pM – 10 µM) for subsequent stimulation for 1 h at 37 °C. The stimulation was terminated by lysis and the simultaneous addition of homogenous time-resolved fluorescence resonance energy transfer reagents. The lysates were incubated for a minimum of 1 h at room temperature. Fluorescence emission measurements at 620 nm and 665 nm were performed using a FlexStation3 plate reader (Molecular Devices, Sunnyvale, CA) or Spark Multimode plate reader (Tecan, Männedorf, Switzerland) at an excitation wavelength of 340 nm. Results were analysed as a ratio of fluorescence intensities of 665 nm to 620 nm.
Data from cellular assays were analysed using GraphPad Prism 7.03 (GraphPad Software, San Diego). Concentration-response data were fitted to three- or four-parameter logistic equations to derive estimates of potency (LogEC50) and efficacy (Emax), relative to the maximal inotocin control response. Data from agonist-antagonist interaction experiments were fit to a Schild regression analysis.
For orientation: Time-resolved FRET reads energy transfer from a long-lived donor to a nearby acceptor.

For series [4], the system named is T. castaneum inotocin receptor. The series can be described thus: IP1 accumulation, agonist mode (T. castaneum inotocin receptor). The class given is cell-based, Tribolium castaneum.
Text: as §2
as §3, with “Cells were allowed to equilibrate in the stimulation buffer at 37 °C for 15 min, followed by addition of peptide ligands (to final concentrations of 0.1 pM – 10 µM) for subsequent stimulation for 1 h at 37 °C.” left out, “The lysates were incubated for a minimum of 1 h at room temperature.” left out
(§4) Data from cellular assays were analysed using GraphPad Prism 7.03 (GraphPad Software, San Diego). […]

In series [5] the test system is T. castaneum inotocin receptor. The series can be described thus: Antagonism of inotocin-mediated IP1 accumulation, Schild analysis. The class given is cell-based, Tribolium castaneum. As to conditions: HEK293, IP1.
Text: as §2, with “After 4–6 h, cells were dissociated by trituration and replated into white opaque 384-well plates (CellStar®, Greiner, Kremsmünster, Austria) at approximately 10,000 cells per well. Cells were cultured for approximately 38–48 h in a humidified incubator at 37 °C and an atmosphere of 5% CO2, and then assayed for second messenger production.” left out
Quantitative measurements of receptor-mediated inositol 1-phosphate (IP1) were performed by competitive immunoassay utilising the IP-One assay kit (CisBio, France). […] The stimulation was terminated by lysis and the simultaneous addition of homogenous time-resolved fluorescence resonance energy transfer reagents. […] Fluorescence emission measurements at 620 nm and 665 nm were performed using a FlexStation3 plate reader (Molecular Devices, Sunnyvale, CA) or Spark Multimode plate reader (Tecan, Männedorf, Switzerland) at an excitation wavelength of 340 nm. Results were analysed as a ratio of fluorescence intensities of 665 nm to 620 nm.
as §4

For series [6], the target named is Lasius niger inotocin receptor (Lasius niger).
Series [7] deals with Tribolium castaneum inotocin receptor (Tribolium castaneum).
Setting [8] is: L. niger receptor, IP1 accumulation, HEK293.
[9] abbreviates: T. castaneum receptor, IP1 accumulation, HEK293.

Entries after “also recorded” stand apart in the source; their conditions may differ. Positions of bridges follow the written chain, without caps; N, C: chain ends. No end group written: not given here.

The term pA2 denotes the negative logarithm of the molar antagonist concentration that doubles the agonist concentration needed for the same response.

Consider “oxytocin: reported agonist of the T. castaneum receptor”, for which, in series [1], the “agonist activity at T. castaneum receptor (in words)” value is “agonist”.
Regarding “kalata B7: plant-derived cyclic peptide (cyclotide) from Oldenlandia affinis, synthesised by Fmoc-SPPS and native chemical ligation (cyclo(GLPVCGETCTLGTCYTQGCTCSWPICKRN); also: oxidized form, disulfides not placed)”, the “activity at human oxytocin receptor (in words)” value in the series on human oxytocin receptor is “partial agonist”. Also, the “activity at human vasopressin V1a receptor (in words)” value in series [2] is listed as “partial agonist”. The “effects on cell viability” value in the series on HEK293 cells is recorded as “did not observe negative effects on cell viability”. Further, the Emax in series [3] came to 86.5 ± 4.7 % inotocin max. response; in [4] (HEK293 cells expressing T. castaneum receptor (C-terminal EGFP fusion), IP-One HTRF assay, 1 h at 37 °C, mean ± S.E.M. from at least three independent experiments in triplicate), 60.3 ± 9.6 % inotocin max. response. Also, the LogEC50 in series [3] is −5.66 ± 0.10 Log[M]; in series [4] (HEK293 cells expressing T. castaneum receptor (C-terminal EGFP fusion), IP-One HTRF assay, pH 7.4, 1 h at 37 °C, mean ± S.E.M. from at least three independent experiments in triplicate), −5.14 ± 0.22 Log[M]. The “agonist activity (in words)” value in series [3] (setting [8]) and in series [4] (setting [9]) was “weak partial agonist” throughout. Moreover, the EC50 was 2.2 µM in series [3] (L. niger receptor, IP1 accumulation, HEK293, read-out: potency) and 7.2 µM in series [4] (T. castaneum receptor, IP1 accumulation, HEK293, read-out: potency).
For the molecule atosiban, in series [3], the Emax was determined as 89.9 ± 4.5 % inotocin max. response and the LogEC50 is −5.81 ± 0.12 Log[M]. Also, the “agonist activity (in words)” value in series [3] (setting [8]) is listed as “partial agonist”. Further, the “antagonism of inotocin (in words)” value in series [5] (dextral displacement of the inotocin concentration-response curve) is given as “competitively inhibits the T. castaneum inotocin receptor; also recorded: selectively antagonises the T. castaneum receptor”. Besides, in series [5] (from Schild analysis (pA2), competitive antagonism of inotocin), the estimated functional affinity entry was “approximately 93 nM”. Moreover, the pA2 in series [5] (inotocin 1 pM – 10 µM in absence or presence of 100 nM, 1 µM, 3 µM, 10 µM atosiban, Schild analysis, mean ± S.E.M. of three independent experiments in triplicate) is on record as 7.03 ± 0.086. The “Schild Slope” value in [5] (inotocin 1 pM – 10 µM in absence or presence of 100 nM, 1 µM, 3 µM, 10 µM atosiban, mean ± S.E.M. of three independent experiments in triplicate) is 1.00 ± 0.085. Besides, the “agonist activity (in words)” value in series [4] (setting [9]) is recorded as “lacked agonist activity”.

B1: inotocin (peptide)
peptide: CLITNCPRG-NH2
modifications: disulfide 1-6 (inferred)
In the case of B1, in [6], the Emax of receptor-mediated IP1 accumulation in HEK293 cells expressing the L. niger inotocin receptor (the reference response) (% inotocin max. response) is 100 and the LogEC50 of receptor-mediated IP1 accumulation in HEK293 cells expressing the L. niger inotocin receptor is -10.2 Log[M]. Further, in [7], the Emax of receptor-mediated IP1 accumulation in HEK293 cells expressing the T. castaneum inotocin receptor (the reference response) amounted to 100% and the LogEC50 of receptor-mediated IP1 accumulation in HEK293 cells expressing the T. castaneum inotocin receptor was -9.63 Log[M].

B2: kalata B7 (peptide)
peptide: cyclo(GLPVCGETCTLGTCYTQGCTCSWPICKRN)
modifications: disulfide (positions not given here); also: oxidized, disulfide pairing not given here
In [6], B2 yielded an Emax of receptor-mediated IP1 accumulation in HEK293 cells expressing the L. niger inotocin receptor (% inotocin max. response) of 86.5 and a LogEC50 of receptor-mediated IP1 accumulation in HEK293 cells expressing the L. niger inotocin receptor of -5.66 Log[M]. In series [7], the Emax of receptor-mediated IP1 accumulation in HEK293 cells expressing the T. castaneum inotocin receptor (% inotocin max. response) is 60.3 and the LogEC50 of receptor-mediated IP1 accumulation in HEK293 cells expressing the T. castaneum inotocin receptor was -5.14 Log[M].
